A short description of this data set: In-vitro nail permeation assay (Franz type diffusion cells). It counts as in vitro ADME, human. To be noted: for Mean value of terbinafine concentration in the 5 mL receptor chamber of the Franz cell, Day 3 / Mean value of terbinafine concentration in the 5 mL receptor chamber of the Franz cell, Day 5: n=3. From the text: Permeation fluxes of active substances, determined from nail permeation assays, are used to predict the efficacy of the active substances in a clinical situation. A permeation assay similar to the one reported by Franz (T. J. Franz, Dermatology, 184, 18-20, 1992) was used to investigate the applicability of the present invention to the treatment of onychomycosis and, in particular, to evaluate the permeation fluxes of a terbinafine containing pharmaceutical composition and a protective layer in laser pre-treated human cadaver great toenails. The experimental setup emulates the clinical situation where the pharmaceutical composition remains liquid for an extended period of time inside the nail holes in the case of laser pretreated nails to maximize the diffusion of the terbinafine into the nail.
Human cadaver great toenails selected for the tests were soaked in physiological buffer solution for several hours before starting the assay. Nails were prepared for the assay by removal of epidermal residues on the ventral side. Round nail discs of 16 mm in diameter were punched. […] Nails were masked on the dorsal side by a silicon mounting ring leaving a nail area of 10 mm in diameter where the nails were exposed to the pharmaceutical composition and the protective layer.
Three groups of nail samples were investigated.
Group 1: Untreated nail samples were used in this group which is the control group. These nails were exposed to 25 μL of a lacquer containing 9% w/w terbinafine once a day.
Group 2: In this group perforated nails were used. These nails were exposed to 25 μL of a 10% w/w terbinafine in ethanol solution once a day. After the application of the 10% w/w ethanolic solution to these nails, nails were covered with 25 μL of a lacquer containing 9% w/w terbinafine to form the protective layer according to the present invention.
Group 3: In this group perforated nails were used. These nails were exposed to 25 μL of a 10% w/w terbinafine in ethanol solution once a day. After the application of the 10% w/w ethanolic solution to these nails, these nails were covered with 25 μL of a lacquer without terbinafine to form the protective layer according to the present invention.
Franz type diffusion cells made of glass were used in the assays having a volume of ca. 5 mL using demineralized water as receptor buffer. Nail samples were fixed on the Franz cells with sealing silicone and Teflon discs pressed with a metallic spring loading system. In this way the ventral sides of the nails were in contact with demineralized water in the cell while the dorsal sides were in contact with the pharmaceutical formulations and protective layer according to Table 1. Diffusion cells were kept at 32° C. during the permeation assays.
Cleaning of the nail sample and dissolution of previous layers of pharmaceutical composition and protective layers were performed prior to every reapplication of the pharmaceutical composition and the protective layer. For this purpose 100 microliters of dissolvent were applied to every nail sample. Subsequently, the nail samples were rubbed with a cleaning brush to ensure an exhaustive cleaning and then were dried with a cotton swab to remove with the dissolvent also the old components of the pharmaceutical solution and the protective layer. 25 microliters of the pharmaceutical composition were then applied to the exposed nail area and distributed with the application brush.
Samples of receptor fluid were collected at various time points and analyzed by liquid chromatography and mass spectroscopy. The removed sample volume was replaced by demineralized water. This dilution effects were accounted in the final determination of the permeation fluxes.

[1] abbreviates: Group 1 (control): untreated nails, 9% w/w terbinafine lacquer once a day, dissolvent ethanol, 32° C.
The mark [2] stands for this setting: Group 2: laser pretreated nails (400 partial orifices/cm^2), 10% w/w terbinafine in ethanol once a day, protective layer 9% w/w terbinafine lacquer.
Setting [3] is: Group 3: laser pretreated nails (400 partial orifices/cm^2), 10% w/w terbinafine in ethanol once a day, protective layer lacquer without terbinafine.

As for `CN(C/C=C/C#CC(C)(C)C)Cc1cccc2ccccc12` [terbinafine], the “Permeation Fluxes” value (Group 1 (control): untreated nails, 9% w/w terbinafine lacquer once a day, dissolvent ethanol) was found to be 4.34 ng/cm^2/h; the “Permeation Fluxes” value (Group 2: laser pretreated nails, 10% w/w terbinafine in ethanol once a day, protective layer 9% w/w terbinafine lacquer) is reported as 149.6 ng/cm^2/h; the “Permeation Fluxes” value (Group 3: laser pretreated nails, 10% w/w terbinafine in ethanol once a day, protective layer lacquer without terbinafine) is 23.6 ng/cm^2/h. The “Mean value of terbinafine concentration in the 5 mL receptor chamber of the Franz cell, Day 3” value worked out at 82.4 ng/mL under setting [1], 305.2 ng/mL under setting [2] and 94.5 ng/mL under setting [3]. Further, the “Mean value of terbinafine concentration in the 5 mL receptor chamber of the Franz cell, Day 5” value was determined as 115.1 ng/mL under setting [1], 1432.9 ng/mL under setting [2] and 272.6 ng/mL under setting [3]. In addition, the “increase in the permeation fluxes as compared to the control group (group 1)” value is, setting by setting: (Group 2 (protective layer also contains terbinafine) vs group 1) 34 fold; (Group 3 (protective layer does not contain terbinafine) vs group 1) 5 fold.

For the origin of these results see patent US20080299060A1, “Pharmaceutical Composition for the Treatment of Nail Diseases” (TLT MEDICAL LTD., priority 2006, published 2008).
